Assay results: EP4624465A1, “COMPOUND SERVING AS DDR1 KINASE INHIBITOR, AND MEDICINE” (Nippon Shinyaku Co., Ltd., priority 2022, dated 2024)
Where a name gives a salt, the structure may show the parent alone.

Biological target: DDR1 kinase (Homo sapiens, UniProt Q08345)
Assay: Evaluation of DDR1 kinase inhibition (LANCE Ultra TR-FRET kinase assay)
Format: biochemical
Parameters: purchased Carna Biosciences 08-113
Details: DDR1 protein 0.5 nM, LANCE Ultra ULight-poly GAT substrate, 2 hours at room temperature, duplicate; read-out: DDR-1 IC50

DDR1 kinase, sequence (Q08345 19-876 isoform Q08345-2 limits assumed): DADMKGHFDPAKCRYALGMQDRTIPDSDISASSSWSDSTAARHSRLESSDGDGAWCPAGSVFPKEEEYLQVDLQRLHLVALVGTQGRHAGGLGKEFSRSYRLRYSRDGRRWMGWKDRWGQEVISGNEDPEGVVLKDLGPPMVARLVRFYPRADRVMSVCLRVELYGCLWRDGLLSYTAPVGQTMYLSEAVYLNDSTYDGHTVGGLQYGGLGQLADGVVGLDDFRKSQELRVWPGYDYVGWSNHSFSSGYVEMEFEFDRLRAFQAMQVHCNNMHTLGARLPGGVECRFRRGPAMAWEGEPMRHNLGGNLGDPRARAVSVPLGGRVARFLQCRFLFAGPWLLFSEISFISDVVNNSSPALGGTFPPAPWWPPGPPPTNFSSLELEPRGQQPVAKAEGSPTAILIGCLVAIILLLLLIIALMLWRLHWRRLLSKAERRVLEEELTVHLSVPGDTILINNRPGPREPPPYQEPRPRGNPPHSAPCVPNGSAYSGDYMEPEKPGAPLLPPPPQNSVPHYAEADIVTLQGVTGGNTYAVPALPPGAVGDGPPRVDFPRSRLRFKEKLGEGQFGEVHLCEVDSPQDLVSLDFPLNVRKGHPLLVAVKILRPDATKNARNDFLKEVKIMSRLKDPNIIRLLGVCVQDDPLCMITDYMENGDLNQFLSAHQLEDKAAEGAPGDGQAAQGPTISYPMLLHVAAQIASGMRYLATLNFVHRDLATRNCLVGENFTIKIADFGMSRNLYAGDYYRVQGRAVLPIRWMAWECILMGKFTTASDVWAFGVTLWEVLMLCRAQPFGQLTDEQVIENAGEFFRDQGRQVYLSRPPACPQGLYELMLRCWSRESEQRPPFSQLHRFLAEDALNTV

Compound	IC50
CN1CCN(C(=O)Cn2nc(C3CN(C(=O)c4cc(N)ncc4F)C3)c3ccccc32)CC1 [Compound E-260]	240 nM
Cc1cc2c(C3CN(C(=O)c4ccnc(N)c4C)C3)nn(CC(=O)N3CCO[C@@H](C(F)(F)F)C3)c2cn1 [Compound E-178, 2-{3-[1-(2-amino-3-methylpyridine-4-carbonyl)azetidin-3-yl]-5-methyl-1H-pyrazolol3,4-clpyridin-1-yl}-1-[(2R)-2-(trifluoromethyl)morpholin-4-yl]ethan-1-one dihydrochloride]	54 nM
O=C(c1cn[nH]c1)N1CC(c2nn(CC(=O)N3CCC[C@H]3C(F)(F)F)c3cc(F)cc(F)c23)C1 [Compound E-164, 2-(4,6-difluoro-3-[1-(1H-pyrazole-4-carbonyl)azetidin-3-yl]-1H-indazol-1-yl}-1-[(28)-2-(trifluoromethyl)pyrrolidin-1-yl]ethan-1-one]	200 nM
Nc1cc(C(=O)N2CC(c3nn(CC(=O)N4CCC[C@H]4COC(F)(F)F)c4cc(F)cc(F)c34)C2)ccn1 [Compound E-56, 2-{3-[1-(2-aminopyridine-4-carbonyl)azetidin-3-yl]-4,6-difluoro-1H-indazol-1-yl}-1-[(2S)-2-[(trifluoromethoxy)methyl]pyrrolidin-1-yl]ethan-1-one]	0.8 nM
Nc1cc(C(=O)N2CC(c3nn(CC(=O)N4CCC[C@H]4C(F)(F)F)c4cccnc34)C2)ccn1 [Compound E-120]	60 nM
Cc1[nH]ncc1C(=O)N1CC(c2nn(CC(=O)N3CCC[C@H]3C(F)(F)F)c3cc(F)cc(F)c23)C1 [Compound E-165, 2-{4,6-difluoro-3-[1-(5-methyl-1H-pyrazole-4-carbonyl)azetidin-3-yl]-1H-indazol-1-yl}-1-[(28)-2-(trifluoromethyl)pyrrolidin-1-yl]ethan-1-one]	29 nM
Cc1ccc2c(c1)c(C1CN(C(=O)c3cc(N)ncc3F)C1)nn2CC(=O)N1CCC[C@H]1C(F)(F)F [Compound E-201, 2-{3-[1-(2-amino-5-fluoropyridine-4-carbonyl)azetidin-3-yl]-5-methyl-1H-indazol-1-yl}-1-[(28)-2-(trifluoromethyl)pyrrolidin-1-yl]ethan-1-one]	1.7 nM
Nc1cc(C(=O)N2CC(c3nn(Cc4noc(C(F)(F)F)n4)c4cccc(F)c34)C2)ccn1 [Compound E-216, 4-[3-(4-fluoro-1-([5-(trifluoromethyl)-1,2,4-oxadiazol-3-yl]methyl)-1H-indazol-3-yl)azetidine-1-carbonyl]pyridin-2-amine]	13 nM
CN(CC(F)(F)F)C(=O)Cn1nc(C2(C)CN(C(=O)c3ccnc(N)c3)C2)c2ccccc21 [Compound E-273, 2-{3-[1-(2-aminopyridine-4-carbonyl)-3-methylazetidin-3-yl]-1H-indazol-1-yl}-N-methyl-N-(2,2,2-trifluoroethyl)acetamide]	60 nM
Nc1cc(C(=O)N2CCC(c3cn(CC(=O)N4CCC[C@H]4C(F)(F)F)c4cccc(F)c34)CC2)c(F)cn1 [Compound E-10, 2-{3-[1-(2-amino-5-fluoropyridine-4-carbonyl)piperidin-4-yl]-4-fluoro-1H-indol-1-yl}-1-[(2S)-2-(trifluoromethyl)pyrrolidin-1-yl]ethan-1-one]	0.3 nM
Nc1cc(C(=O)N2CC(c3nn(Cc4cn(CC5COC5)nn4)c4cccc(F)c34)C2)ccn1 [Compound E-38]	190 nM
CN(CC(F)(F)F)C(=O)Cn1nc(C2CN(C(=O)c3ccnc(N)n3)C2)c2c(Cl)c(F)ccc21 [Compound E-287, 2-{3-(1-(2-aminopyrimidine-4-carbonyl)azetidin-3-yl]-4-chloro-5-fluoro-1H-indazol-1-yl}-N-methyl-N-(2,2,2-trifluoroethyl)acetamide]	7.8 nM
Nc1cc(C(=O)N2CCC(c3nn(CC(=O)N4CCC[C@H]4C(F)(F)F)c4ccccc34)CC2)c(F)cn1 [Compound E-49, 2-{3-[1-(2-amino-5-fluoropyridine-4-carbonyl)piperidin-4-yl]-1H-indazol-1-yl}-1-[(2S)-2-(trifluoromethyl)pyrrolidin-1-yl]ethan-1-one]	9.9 nM
Cc1nc(N)sc1C(=O)N1CCC(c2nn(CC(=O)N3CCC[C@H]3C(F)(F)F)c3cccc(F)c23)CC1 [Compound E-119, 2-{3-[1-(2-amino-4-methyl-1,3-thiazole-5-carbonyl)piperidin-4-yl]-4-fluoro-1H-indazol-1-yl}·1-[(2S)-2-(trifluoromethyl)pyrrolidin-1-yl]ethan-1-one]	4.4 nM
Nc1cc(C(=O)N2CC(c3nn(Cc4ccccc4C(F)(F)F)c4cccc(F)c34)C2)ccn1 [Compound E-114, 4-[3-(4-fluoro-1-{[2-(trifluoromethyl)phenyllmethyl}-1H-indazol-3-yl)azetidine-1-carbonyl]pyridin-2-amine hydrochloride]	56 nM
Nc1cc(C(=O)N2CC(c3nn(CC(=O)N4CCc5ccc(Br)cc54)c4cc(F)cc(F)c34)C2)ccn1 [Compound E-161]	0.3 nM
Nc1cc(C(=O)N2CC(c3nn(CC(=O)NC45CC(C4)C5)c4cccc(F)c34)C2)ccn1 [Compound E-239, 2-{3-[1-(2-aminopyridine-4-carbonyl)azetidin-3-yl]-4-fluoro-1H-indazol-1-yl}-N-{bicyclo[1.1.1]pentan-1-yl}acetamide]	3.3 nM
Nc1cc(C(=O)N2CC(c3nn(Cc4nnc(C(F)(F)F)o4)c4cccc(F)c34)C2)ccn1 [Compound E-128, 4-[3-(4-fluoro-1-{[5-(trifluoromethyl)-1,3,4-oxadiazol-2-yl]methyl}-1H-indazol-3-yl)azetidine-1-carbonyl}pyridin-2-amine]	180 nM
Cc1noc(Cn2nc(C3CN(C(=O)c4ccnc(N)c4)C3)c3c(F)cccc32)n1 [Compound E-109, 4-(3-{4-fluoro-1-[(3-methyl-1,2,4-oxadiazol-5-yl)methyl]-1H-indazol-3-yl}azetidine-1-carbonyl)pyridin-2-amine]	210 nM
Nc1cc(C(=O)N2CC=C(c3nn(CC(=O)N4CCC[C@H]4C(F)(F)F)c4ccccc34)CC2)c(F)cn1 [Compound E-47, 2-{3-[1-(2-amino-5-fluoropyridine-4-carbonyl)-1,2,3,6-tetrahydropyridin-4-yl]-1H-indazol-1-yl}-1-[(2S)-2-(trifluoromethyl)pyrrolidin-1-yl]ethan-1-one]	140 nM
O=C(c1cn[nH]c1C(F)(F)F)N1CC(c2nn(CC(=O)N3CCC[C@H]3C(F)(F)F)c3cc(F)cc(F)c23)C1 [Compound E-166, 2-(4,6-difluoro-3-{1-[5-(trifluoromethyl)-1H-pyrazole-4-carbonyl]azetidin-3-yl}-1H-indazol-1-yl)-1-[(2S)-2-(trifluoromethyl)pyrrolidin-1-yl]ethan-1-one]	150 nM
Cc1nc(N)sc1C(=O)N1CC(c2nn(CC(=O)N3CCC[C@H]3C(F)(F)F)c3cccnc23)C1 [Compound E-122]	140 nM
Nc1cc(C(=O)N2CC(c3nn(Cc4noc(C5CCOCC5)n4)c4cccc(F)c34)C2)ccn1 [Compound E-137]	34 nM
Cc1ccc(-c2nc(Cn3nc(C4CN(C(=O)c5ccnc(N)c5)C4)c4c(F)cccc43)no2)nn1 [Compound E-154, 4-[3-(4-fluoro-1-{[5-(6-methylpyridazin-3-yl)-1,2.4-oxadiazol-3-yl}methyl}-1H-indazol-3-yl)azetidine-1-carbony1]pyridin-2-amine]	270 nM
